Data on five compounds can be found in patent US20250290915A1, “METHOD FOR PREDICTING RESPONSIVENESS TO THERAPY” (CANCERTAIN LIMITED, priority 2022, published 2025).

Holding throughout (assay type): cell-based, human
Assay [1] relates to Circulating Tumour Cells (CTCs) from a patient with colon cancer (sigmoid colon cancer). The experiment in a line: Drug response score assay on CTCs from blood, Example 8. As to conditions: for Drug response score, conc. 1: conc. 1 of each drug as in Table 24; for Drug response score, conc. 1 / Drug response score, conc. 2 / Drug response score, conc. 3 / Drug response score, conc. 4: CTCs, t96h; for Drug response score, conc. 2: conc. 2 of each drug as in Table 24; for Drug response score, conc. 3: conc. 3 of each drug as in Table 24; for Drug response score, conc. 4: conc. 4 of each drug as in Table 24; for Drug sensitivity as calculated by the assay (interpretation of Drug Response Scores): sigmoid colon cancer CTCs, Table 26. More on the design: key to Drug response score, conc. 1 / Drug response score, conc. 2 / Drug response score, conc. 3 / Drug response score, conc. 4: normalized drug response metric (Gupta et al. 2020). Summed up: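 EpCAM+ CTCs isolated from patient blood by CD45 depletion then EpCAM bead selection, and imaged with RealTime-Glo MT viability and CellTox Green cytotoxicity reagents. Agents added, cells cultured at 37° C, 5% CO2 for 48 h, re-dosed, then a further 48 h. Score calculated by normalized drug response metric from t0 and t96h readouts against blank-well controls.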

For assay [2], the system named is Circulating Tumour Cells (CTCs, EpCam+CD45−) from a patient with stage II synovial sarcoma. Put plainly: Drug response score assay (RealTime-Glo MT / CellTox Green, PCL scaffold) on CTCs from blood, Example 1. More on the design: key to Drug response score, conc. 1 / Drug response score, conc. 2 / Drug response score, conc. 3 / Drug response score, conc. 4: normalized drug response metric per Gupta et al. 2020. As to conditions: for Drug response score, conc. 1: conc. 1: Doxo 10 ng/ml, Ifos 0.125 μg/ml, Gemcit 2 μg/ml, Doce 0.02 μg/ml, Carbo 2 μg/ml, Dacarb 1.5 μg/ml, re-dosed at 48 h; for Drug response score, conc. 1 / Drug response score, conc. 2 / Drug response score, conc. 3 / Drug response score, conc. 4: CTCs, t96h; for Drug response score, conc. 2: conc. 2: Doxo 30 ng/ml, Ifos 0.25 μg/ml, Gemcit 10 μg/ml, Doce 0.2 μg/ml, Carbo 5 μg/ml, Dacarb 3 μg/ml; for Drug response score, conc. 3: conc. 3: Doxo 90 ng/ml, Ifos 5 μg/ml, Gemcit 20 μg/ml, Doce 2 μg/ml, Carbo 10 μg/ml, Dacarb 6 μg/ml; for Drug response score, conc. 4: conc. 4: Doxo 270 ng/ml, Ifos 10 μg/ml, Gemcit 40 μg/ml, Doce 10 μg/ml, Carbo 20 μg/ml, Dacarb 12 μg/ml; for Drug sensitivity as calculated by the assay (interpretation of Drug Response Scores): Table 5. As for the experimental part:
CD45^+ cells and circulating tumour cells (CTCs) were isolated from a blood sample provided by each subject.
CD45 separation was performed by adding human CD45 microbeads (50 μl/ml blood), incubating for 15 minutes at 4° C. and then processing using an AutoMACS machine. This separates the blood sample into CD45^+ and CD45^−cells in 2 separate falcons. The falcon tubes are then centrifuged at 1200 rpm for 5 minutes.
The supernatant was removed from the CD45^−falcon tube, and the CD45^−cells contacted with 100 μl of FcR block and 100 μl of CD326 (EpCAM) MicroBeads, followed by incubation at […] 4° C. for 30 minutes. The CD45^−cells were then processed using an AutoMACS machine to separate the EpCAM positive and negative cells into 2 separate falcon tubes. The EpCAM-cells were discarded. The supernatant was removed from the EpCAM^+ cells, and the cells resuspended in DMEM with 2 μl Cell Tox, 2 μl MT and 2 μl MT. 20 μl of the resuspended pellet was then added to all sample wells excluding a blank. After all wells are added to, a cell count was conducted on the […] to determine the number of circulating tumour cells (CTCs).
The different cell types were each divided equally into populations, depending on the number of drugs/concentrations to be tested and plated on a cell-culture plate pre-coated with a scaffold of polycaprolactone (PCL) electrospun fibres and incubated at 37° C., 5% CO2, for 5 to (typically 10) minutes to facilitate cell attachment. After attachment, an initial imaging step was carried out using the RealTime-Glo™ MT assay from Promega (Catalogue No. G9711)) and the CellTox™ Green Cytotoxicity Assay (Promega, Catalogue No. G8741), carried out according to manufacturer's instructions. Following this initial imagining, the immunotherapeutic and/or chemotherapeutic agents were added to the cell populations as indicated below. After 10 minutes, the imagining step was repeated. The cell populations were then incubated at 37° C., 5% CO2 for 48 hours. The imaging step was then repeated. The cell populations were then re-dosed with the same immunotherapeutic and/or chemotherapeutic agents as indicated below, and incubated at 37° C., 5% CO2 for a further 48 hours. After this second 48 hour incubation, the imagining step was repeated for a final time.
At the end of this culture period, dose response scores were calculated using a normalized drug response metric as described in Gupta et al. (Communications Biology volume 3, Article number: 42 (2020), https://doi.org/10.1038/s42003-020-0765-z). The start readout for a given immunotherapeutic or chemotherapeutic agent at a given concentration was the to readout for said immunotherapeutic or chemotherapeutic agent at a specified concentration. The end readout for a given immunotherapeutic or chemotherapeutic agent at a given concentration was the final timepoint reading (t96h) for said immunotherapeutic or chemotherapeutic agent at a specified concentration.
The positive control start readout for a given drug/concentration was the to readout for the corresponding drug at a specified concentration. The positive control end readout for the corresponding drug at a specified concentration was the final timepoint reading (t96h) for the corresponding blank well.
The negative control start and end readouts for a given immunotherapeutic or chemotherapeutic agent at a given concentration were the to and final timepoint reading (t96h) respectively for blank cell or blank immuno cell well respectively.
The sensitivity or resistance of a subject's cancer to a given immunotherapeutic or chemotherapeutic agent was determined based on the calculated drug response score as shown in Table 2.
Blood samples from a patient with stage II synovial sarcoma (suspected spindle cell tumour) were received and tested using a 6 drug panel.
Chemotherapeutic agents were tested as in Table 3.

The subject of assay [3] is Circulating Tumour Cells (CTCs) from a patient with head and neck cancer (squamous cell carcinoma). The experiment in a line: Drug response score assay on CTCs from blood, Example 6. As to conditions: for Drug response score, conc. 1: conc. 1: Ifos 0.125 μg/ml, Gemcit 2 μg/ml, Doxo 10 ng/ml, Etop 1 μg/ml, Metho 0.5 μg/ml, Capecit 200 μg/ml, Vinor 20 μg/ml; for Drug response score, conc. 1 / Drug response score, conc. 2 / Drug response score, conc. 3 / Drug response score, conc. 4: CTCs, t96h; for Drug response score, conc. 2: conc. 2: Ifos 0.25 μg/ml, Gemcit 10 μg/ml, Doxo 30 ng/ml, Etop 4 μg/ml, Metho 1 μg/ml, Capecit 300 μg/ml, Vinor 40 μg/ml; for Drug response score, conc. 3: conc. 3: Ifos 5 μg/ml, Gemcit 20 μg/ml, Doxo 90 ng/ml, Etop 20 μg/ml, Metho 2 μg/ml, Capecit 400 μg/ml, Vinor 80 μg/ml; for Drug response score, conc. 4: conc. 4: Ifos 10 μg/ml, Gemcit 40 μg/ml, Doxo 270 ng/ml, Etop 100 μg/ml, Metho 4 μg/ml, Capecit 600 μg/ml, Vinor 200 μg/ml; for effectiveness on Circulating Tumour Cells under laboratory conditions / Drug sensitivity as calculated by the assay (interpretation of Drug Response Scores): head and neck cancer CTCs; for Drug sensitivity as calculated by the assay (interpretation of Drug Response Scores): Table 20. Summed up:
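EpCAM+ CTCs isolated after CD45 depletion were plated on PCL electrospun fibre scaffolds and read by RealTime-Glo MT and CellTox Green imaging before and 10 min after drug addition, at 48 h, then re-dosed and read at 96 h. Normalized drug response scores derived per Gupta et al. from start and t96h readouts against blank-well controls.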

Regarding `CC(=O)O[C@H]1C(=O)[C@@]2(C)[C@H]([C@H](OC(=O)c3ccccc3)[C@]3(O)C[C@H](OC(=O)[C@H](O)[C@@H](NC(=O)c4ccccc4)c4ccccc4)C(C)=C1C3(C)C)[C@]1(OC(C)=O)CO[C@@H]1C[C@@H]2O` [Paclitaxel], in assay [1], the “Drug response score, conc. 1” value is on record as −0.8976; the “Drug response score, conc. 2” value is −0.1500; the “Drug response score, conc. 3” value is −0.5818; the “Drug response score, conc. 4” value is recorded as −0.8009. Moreover, the “Drug sensitivity as calculated by the assay (interpretation of Drug Response Scores)” value (shortened to “Drug sensitivity as calculated”) in assay [1] is “Sensitive (S++)”.
Take `CC(=O)O[C@@]12CO[C@@H]1C[C@H](O)[C@@]1(C)C(=O)[C@H](O)C3=C(C)[C@@H](OC(=O)[C@H](O)[C@@H](NC(=O)OC(C)(C)C)c4ccccc4)C[C@@](O)([C@@H](OC(=O)c4ccccc4)[C@H]21)C3(C)C` [Docetaxel]: in assay [2], the “Drug response score, conc. 1” value is on record as 0.8633; the “Drug response score, conc. 2” value is given as 0.7451; the “Drug response score, conc. 3” value was determined as 0.6992; the “Drug response score, conc. 4” value is 0.4852. For the same compound, in assay [2] (synovial sarcoma CTCs), the “Drug sensitivity as calculated” value is “Sensitive (S+)”.
`COc1cc([C@@H]2c3cc4c(cc3[C@@H](O[C@@H]3O[C@@H]5CO[C@@H](C)O[C@H]5[C@H](O)[C@H]3O)[C@H]3COC(=O)[C@H]23)OCO4)cc(OC)c1O` [Etoposide]: in assay [3], the “Drug response score, conc. 1” value is listed as 0.9372; the “Drug response score, conc. 2” value was 0.6295; the “Drug response score, conc. 3” value was determined as 0.9862; the “Drug response score, conc. 4” value amounted to 0.5135. For the same compound, in assay [3], the “effectiveness on Circulating Tumour Cells under laboratory conditions” value (from here on “effectiveness”) is reported as “Sensitive S+” and the “Drug sensitivity as calculated” value was “Sensitive (S+)”. In assay [1], the “Drug response score, conc. 1” value is −0.4099; the “Drug response score, conc. 2” value is recorded as −0.6338; the “Drug response score, conc. 3” value was −0.6648; the “Drug response score, conc. 4” value came to 0.1129. In assay [1], the “Drug sensitivity as calculated” value is on record as “Sensitive (S++)”.
As for `O=P1(NCCCl)OCCCN1CCCl` (stereo not drawn) [Ifosfamide], in assay [2], the “Drug response score, conc. 1” value was 0.7534; the “Drug response score, conc. 2” value was 0.6369; the “Drug response score, conc. 3” value was 0.7555; the “Drug response score, conc. 4” value is recorded as 0.5976. Besides, the “Drug sensitivity as calculated” value in assay [2] (synovial sarcoma CTCs) is recorded as “Sensitive (S+)”. Further, in assay [3], the “Drug response score, conc. 1” value stood at 0.7257; the “Drug response score, conc. 2” value is 0.2439; the “Drug response score, conc. 3” value worked out at 0.9228; the “Drug response score, conc. 4” value was determined as 0.3682. In assay [3], the “effectiveness” value was “Sensitive S+” and the “Drug sensitivity as calculated” value was “Sensitive (S+)”.
Turning to `COc1cccc2c1C(=O)c1c(O)c3c(c(O)c1C2=O)C[C@@](O)(C(=O)CO)C[C@@H]3O[C@H]1C[C@H](N)[C@H](O)[C@H](C)O1` [Doxorubicin], in assay [2], the “Drug response score, conc. 1” value worked out at 0.9432; the “Drug response score, conc. 2” value is reported as 0.7234; the “Drug response score, conc. 3” value is reported as 0.8842; the “Drug response score, conc. 4” value is 0.8405. For the same compound, in assay [2] (synovial sarcoma CTCs), the “effectiveness” value is reported as “marginally less effective compared to other drugs” and the “Drug sensitivity as calculated” value is “Sensitive (S+)”. For the same compound, in assay [3], the “Drug response score, conc. 1” value is 0.7699; the “Drug response score, conc. 2” value is 0.9452; the “Drug response score, conc. 3” value was 0.6229; the “Drug response score, conc. 4” value is given as 0.7995. In assay [3], the “effectiveness” value is given as “Sensitive S+” and the “Drug sensitivity as calculated” value was “Sensitive (S+)”. Also, in assay [1], the “Drug response score, conc. 1” value is listed as −0.0102; the “Drug response score, conc. 2” value is −0.0852; the “Drug response score, conc. 3” value was −0.2828; the “Drug sensitivity as calculated” value is reported as “Sensitive (S++)”.
